{
  "source": "patent US8017602B2",
  "about": "“N-(2-(2-(5-hydroxy-3-oxo-3,4-dihydro-2H-benzo[b][1,4]oxazin-8-yl)ethylamino)ethyl)-3-(phenethoxy)propanamide derivatives, processes for their preparation, pharmaceutical compositions containing them and their use in therapy” (AstraZeneca AB, priority 2008, dated 2011)",
  "key": {"[1]": {"target": "T1, Adrenergic β2 (Homo sapiens, UniProt P07550)", "T1 construct": "Adherent H292 cells were removed from tissue culture flasks; endogenous in cells; host or cells: H292 cells", "T1 sequence (P07550 whole entry)": "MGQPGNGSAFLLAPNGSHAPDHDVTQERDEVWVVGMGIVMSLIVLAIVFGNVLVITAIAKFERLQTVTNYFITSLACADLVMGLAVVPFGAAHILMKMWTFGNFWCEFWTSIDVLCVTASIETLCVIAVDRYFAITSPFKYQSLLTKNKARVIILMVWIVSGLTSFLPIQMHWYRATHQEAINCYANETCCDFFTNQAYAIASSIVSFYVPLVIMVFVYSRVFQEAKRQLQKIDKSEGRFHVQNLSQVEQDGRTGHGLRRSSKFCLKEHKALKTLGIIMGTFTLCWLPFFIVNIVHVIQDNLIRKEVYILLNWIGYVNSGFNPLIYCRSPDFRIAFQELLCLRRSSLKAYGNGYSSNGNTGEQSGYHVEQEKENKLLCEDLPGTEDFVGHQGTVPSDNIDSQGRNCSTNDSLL", "test": "Adrenergic β2 mediated cAMP production in H292 cells (AlphaScreen cAMP detection)", "format": "cell-based", "conditions": "for β2 Int Act: Intrinsic Activity, fraction relative to the maximum activity determined for formoterol; for EC50: cAMP production, 60 min at room temperature, 300 μM rolipram, read-out: β2 pEC50 (converted)", "experimental": "H292 cells were grown in 225 cm2 flasks incubator at 37° C., 5% CO2 in RPMI medium containing, 10% (v/v) FBS (foetal bovine serum) and 2 mM L-glutamine.\nAdherent H292 cells were removed from tissue culture flasks by treatment with Accutase™ cell detachment solution for 15 min. Flasks were incubated for 15 min in a humidified incubator at 37° C., 5% CO2. Detached cells were re-suspended in RPMI media (containing 10% (v/v) FBS and 2 mM L-glutamine) at […]. 10000 cells in 100 μl were added to each well of a tissue-culture-treated 96-well plate and the cells incubated overnight in a humidified incubator at 37° C., 5% CO2. The culture media was removed and cells were washed twice with 100 μl assay buffer and replaced with 50 μL assay buffer (HBSS solution containing 10 mM HEPES pH7.4 and 5 mM glucose). Cells were rested at room temperature for 20 min after which time 25 μl of rolipram (1.2 mM made up in assay buffer containing 2.4% (v/v) dimethylsulphoxide) was added. Cells were incubated with rolipram for 10 min after which time test compounds were added and the cells were incubated for 60 min at room temperature. The final rolipram concentration in the assay was 300 μM and final vehicle concentration was 1.6% (v/v) dimethylsulphoxide. The reaction was stopped by removing supernatants, washing once with 100 μL assay buffer and replacing with 50 μL lysis buffer. The cell monolayer was frozen at −80° C. for 30 min (or overnight).\nAlphaScreen™ cAMP Detection\nThe concentration of cAMP (cyclic adenosine monophosphate) in the cell lysate was determined using AlphaScreen™ methodology. The frozen cell plate was thawed for 20 min on a plate shaker then 10 μl of the cell lysate was transferred to a 96-well white plate. 40 μL of mixed AlphaScreen™ detection beads pre-incubated with biotinylated cAMP, was added to each well and the plate incubated at room temperature for 10 h in the dark. The AlphaScreen™ signal was measured using an EnVision spectrophotometer (Perkin-Elmer Inc.) with the recommended manufacturer's settings. cAMP concentrations were determined by reference to a calibration curve determined in the same experiment using standard cAMP concentrations. Concentration response curves for agonists were constructed and data was fitted to a four parameter logistic equation to determine both the pEC50 and Intrinsic Activity. Intrinsic Activity was expressed as a fraction relative to the maximum activity determined for formoterol in each experiment."}, "[2]": {"target": "T2, recombinant human α1D receptor (Homo sapiens, UniProt P25100)", "T2 construct": "expressed in transfected cells; host or cells: HEK293", "T2 sequence (P25100 1-572)": "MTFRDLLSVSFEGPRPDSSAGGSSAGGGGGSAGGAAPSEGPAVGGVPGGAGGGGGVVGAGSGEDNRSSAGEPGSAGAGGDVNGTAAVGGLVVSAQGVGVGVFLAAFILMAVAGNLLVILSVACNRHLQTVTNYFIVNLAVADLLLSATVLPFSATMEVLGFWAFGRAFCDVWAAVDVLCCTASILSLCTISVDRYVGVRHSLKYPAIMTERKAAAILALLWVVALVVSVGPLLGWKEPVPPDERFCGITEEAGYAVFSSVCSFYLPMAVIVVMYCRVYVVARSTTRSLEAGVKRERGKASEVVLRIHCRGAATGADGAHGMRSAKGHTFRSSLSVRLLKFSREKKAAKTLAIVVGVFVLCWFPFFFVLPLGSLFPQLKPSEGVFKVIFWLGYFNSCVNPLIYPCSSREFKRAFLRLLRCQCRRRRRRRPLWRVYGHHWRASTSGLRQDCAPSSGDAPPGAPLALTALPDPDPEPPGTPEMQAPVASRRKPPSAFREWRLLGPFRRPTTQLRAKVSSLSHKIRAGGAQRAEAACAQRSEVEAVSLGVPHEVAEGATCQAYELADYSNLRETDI", "test": "Adrenergic α1D selectivity binding assay ([3H]-prazosin)", "conditions": "inhibition of [3H]-prazosin binding, HEK293 membranes, read-out: α1 bind pIC50 (converted)", "experimental": "Membranes were prepared from human embryonic kidney 293 (HEK293) cells expressing recombinant human α1D receptor. These were diluted in Assay Buffer (50 mM HEPES, 1 mM EDTA, pH 7.4) to provide a final concentration of membranes that gave a clear window between maximum and minimum specific binding.\nAssays were performed in U-bottomed 96-well polypropylene plates. 10 μl [^3H]-prazosin (0.3 nM final concentration) and 10 μl of test compound (10× final concentration) were added to each test well. For each assay plate 8 replicates were obtained for [^3H]-prazosin binding in the presence of 10 μl vehicle (10% (v/v) DMSO in Assay Buffer; defining maximum binding) or 10 μL BMY7378 (10 μM final concentration; defining non-specific binding (NSB)). Membranes were then added to achieve a final volume of 100 μL. The plates were incubated for 2 h at room temperature and then filtered onto PEI coated GF/B filter plates, pre-soaked for 1 h in Assay Buffer, using a 96-well plate Tomtec cell harvester. Five washes with 250 μl wash buffer (50 mM HEPES, 1 mM EDTA, pH 7.4) were performed at 4° C. to remove unbound radioactivity. The plates were dried then sealed from underneath using Packard plate sealers and MicroScint-O (50 μl) was added to each well. The plates were sealed (TopSeal A) and filter-bound radioactivity was measured with a scintillation counter (TopCount, Packard BioScience) using a 3-minute counting protocol.\nTotal specific binding (B0) was determined by subtracting the mean NSB from the mean maximum binding. NSB values were also subtracted from values from all other wells. […] Data was fitted to a four parameter logistic equation to determine the compound potency, which was expressed as pIC50 (negative log molar concentration inducing 50% inhibition of [^3H]-prazosin binding)."}},
  "note": "Counter-ions that a name gives are not always drawn.",
  "data": [
    {"smiles": "Cc1c(-c2cccc(CCOCCC(=O)N(CCNCCc3ccc(O)c4c3OCC(=O)N4)C3CCCCC3)c2)cnn1C", "note": "[Example 37, N-Cyclohexyl-3-(3-(1,5-dimethyl-1H-pyrazol-4-yl)phenethoxy)-N-(2-(2-(5-hydroxy-3-oxo-3,4-dihydro-2H-benzo[b][1,4]oxazin-8-yl)ethylamino)ethyl)propanamide Trifluoroacetic Acid Salt]", "values": [
      {"measurement": "β2 Int Act", "setting": "[1]", "value": 0.85},
      {"measurement": "EC50", "setting": "[1]", "value": 0.00631, "unit": "µM"},
      {"measurement": "IC50", "setting": "[2]", "value": 1, "unit": "µM"}
    ]},
    {"smiles": "CCC[C@@H](C)N(CCNCCc1ccc(O)c2c1OCC(=O)N2)C(=O)CCOCCc1cccc(-c2cnn(C(C)C)c2)c1", "note": "[Example 21, (R)—N-(2-(2-(5-Hydroxy-3-oxo-3,4-dihydro-2H-benzo[b][1,4]oxazin-8-yl)ethylamino)ethyl)-3-(3-(1-isopropyl-1H-pyrazol-4-yl)phenethoxy)-N-(pentan-2-yl)propanamide Trifluoroacetic Acid Salt]", "values": [
      {"measurement": "β2 Int Act", "setting": "[1]", "value": 1.00},
      {"measurement": "EC50", "setting": "[1]", "value": 0.0126, "unit": "µM"},
      {"measurement": "IC50", "setting": "[2]", "value": 0.794, "unit": "µM"}
    ]},
    {"smiles": "COCCn1cc(-c2cccc(CCOCCC(=O)N(CCNCCc3ccc(O)c4c3OCC(=O)N4)C3CCCCC3)c2)cn1", "note": "[Example 36, N-Cyclohexyl-N-(2-(2-(5-hydroxy-3-oxo-3,4-dihydro-2H-benzo[b][1,4]oxazin-8-yl)ethylamino)ethyl)-3-(3-(1-(2-methoxyethyl)-1H-pyrazol-4-yl)phenethoxy)propanamide Trifluoroacetic Acid Salt]", "values": [
      {"measurement": "β2 Int Act", "setting": "[1]", "value": 1.05},
      {"measurement": "EC50", "setting": "[1]", "value": 0.02, "unit": "µM"},
      {"measurement": "IC50", "setting": "[2]", "value": 2.51, "unit": "µM"}
    ]},
    {"smiles": "Cn1cc(-c2cccc(CCOCCC(=O)N(CCNCCc3ccc(O)c4c3OCC(=O)N4)C3CCCCC3)c2F)cn1", "note": "[Example 16, N-Cyclohexyl-3-(2-fluoro-3-(1-methyl-1H-pyrazol-4-yl)phenethoxy)-N-(2-(2-(5-hydroxy-3-oxo-3,4-dihydro-2H-benzo[b][1,4]oxazin-8-yl)ethylamino)ethyl)propanamide Trifluoroacetic Acid Salt]", "values": [
      {"measurement": "β2 Int Act", "setting": "[1]", "value": 1.00},
      {"measurement": "EC50", "setting": "[1]", "value": 0.0126, "unit": "µM"},
      {"measurement": "IC50", "setting": "[2]", "value": 0.501, "unit": "µM"}
    ]},
    {"smiles": "O=C1COc2c(CCNCCN(C(=O)CCOCCc3cccc(-c4nn[nH]n4)c3)C3CCCCC3)ccc(O)c2N1", "note": "[Example 15, 3-(3-(2H-Tetrazol-5-yl)phenethoxy)-N-cyclohexyl-N-(2-(2-(5-hydroxy-3-oxo-3,4-dihydro-2H-benzo[b][1,4]oxazin-8-yl)ethylamino)ethyl)propanamide Trifluoroacetic Acid Salt]", "values": [
      {"measurement": "β2 Int Act", "setting": "[1]", "value": 0.83},
      {"measurement": "EC50", "setting": "[1]", "value": 0.0126, "unit": "µM"},
      {"measurement": "IC50", "setting": "[2]", "value": "> 10", "unit": "µM"}
    ]},
    {"smiles": "CC(C)[C@@H](C)N(CCNCCc1ccc(O)c2c1OCC(=O)N2)C(=O)CCOCCc1cccc(-c2cnn(C)c2)c1", "note": "[Example 09, (R)—N-(2-(2-(5-Hydroxy-3-oxo-3,4-dihydro-2H-benzo[b][1,4]oxazin-8-yl)ethylamino)ethyl)-3-(3-(1-methyl-1H-pyrazol-4-yl)phenethoxy)-N-(3-methylbutan-2-yl)propanamide Trifluoroacetic Acid Salt]", "values": [
      {"measurement": "β2 Int Act", "setting": "[1]", "value": 0.92},
      {"measurement": "EC50", "setting": "[1]", "value": 0.00794, "unit": "µM"},
      {"measurement": "IC50", "setting": "[2]", "value": 1, "unit": "µM"}
    ]},
    {"smiles": "CCn1cc(-c2cccc(CCOCCC(=O)N(CCNCCc3ccc(O)c4c3OCC(=O)N4)C3CCCC3)c2)cn1", "note": "[Example 24, N-Cyclopentyl-3-(3-(1-ethyl-1H-pyrazol-4-yl)phenethoxy)-N-(2-(2-(5-hydroxy-3-oxo-3,4-dihydro-2H-benzo[b][1,4]oxazin-8-yl)ethylamino)ethyl)propanamide Trifluoroacetic Acid Salt]", "values": [
      {"measurement": "β2 Int Act", "setting": "[1]", "value": 0.95},
      {"measurement": "EC50", "setting": "[1]", "value": 0.00794, "unit": "µM"},
      {"measurement": "IC50", "setting": "[2]", "value": 1.26, "unit": "µM"}
    ]},
    {"smiles": "Cn1nnc(-c2cccc(CCOCCC(=O)N(CCNCCc3ccc(O)c4c3OCC(=O)N4)C3CCCCC3)c2)n1", "note": "[Example 07, N-Cyclohexyl-N-(2-(2-(5-hydroxy-3-oxo-3,4-dihydro-2H-benzo[b][1,4]oxazin-8-yl)ethylamino)ethyl)-3-(3-(2-methyl-2H-tetrazol-5-yl)phenethoxy)propanamide Trifluoroacetic Acid Salt]", "values": [
      {"measurement": "β2 Int Act", "setting": "[1]", "value": 0.92},
      {"measurement": "EC50", "setting": "[1]", "value": 0.0158, "unit": "µM"},
      {"measurement": "IC50", "setting": "[2]", "value": 1, "unit": "µM"}
    ]}
  ]
}
